{"source": "patent US11904020B2", "about": "“Bicyclic peptide ligands specific for TREM2” (Bicycle Tx Limited, priority 2021, dated 2024)", "key": {"[1]": {"biological_target": "TREM2 extracellular domain (ECD) (residues 19-131, C-terminally biotinylated, deglycosylated or glycosylated) (Homo sapiens, UniProt Q9NZC2)", "experiment": "biochemical", "quoted_text": "Bio-layer interferometry was performed on an Octet RED384® system (Sartorius) at 25° C. in a buffer containing 50 mM HEPES (pH 7.5), 150 mM NaCl and 0.1% Tween. TREM2 extracellular domain (ECD) (residues 19-131, C-terminally biotinylated, deglycosylated or glycosylated) was loaded onto Superstreptavidin biosensors (SSA, 18-5070, Sartorius) at 0.0125 mg/ml for 300 s. Bicycle peptides (10 mM in DMSO) were dispensed into 384-Well Tilted-Bottom Plates (18-5076, Sartorius) using an Echo liquid handler giving a final DMSO concentration of 0.125% in all wells including control wells. Association of defined concentrations of bicyclic peptide (0-12.5 μM, 1:2 dilutions for 7 points) was recorded over 120 s followed by dissociation in buffer over 120 s. Reference wells containing no bicycle peptides and reference sensors loaded with an unrelated protein (His-tagged MLLT3a) were subjected to the same assay protocol and double reference subtraction was used for processing to account for non-specific binding. Traces were analysed using Octet Software (Version 11.0). Association and dissociation curves were globally fit and the response at equilibrium (Req) plotted against concentration to obtain steady-state KD values."}, "TREM2 receptor": {"biological_target": "T1, TREM2 receptor (Homo sapiens, UniProt Q9NZC2)", "T1 construct": "Both parental (TREM2 expressing) and isogenic TREM2 KO iPSC macrophages were plated; endogenous in cells; host or cells: human iPSC-derived macrophages (parental, TREM2 expressing)", "T1 sequence (Q9NZC2 19-230)": "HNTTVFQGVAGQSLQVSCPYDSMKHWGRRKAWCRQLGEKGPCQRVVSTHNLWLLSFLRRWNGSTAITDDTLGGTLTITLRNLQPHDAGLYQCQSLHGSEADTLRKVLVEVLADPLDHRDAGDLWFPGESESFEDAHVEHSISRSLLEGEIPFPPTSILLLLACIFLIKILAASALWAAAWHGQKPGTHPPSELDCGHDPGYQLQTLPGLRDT", "experiment": "pSYK Homogenous Time Resolved Fluorescence (HTRF) assay in iPSC macrophages", "assay_type": "cell-based", "description": "Quantitative assessment of total and phospho (Tyr 525/526) SYK was performed on iPSC macrophages using CisBio total and phospho-SYK HTRF kits (catalogue numbers 64SYKTPGG and 64SYKY525-PEG respectively). Human iPSC macrophage precursors derived from embryoid bodies were plated in 96 well plates (Perkin Elmer Cell Carrier ultra, black walled plates, #6055800) at a density of 40 k cells per well in 100 μl macrophage media (XVIVO15 (Lonza, #BE04-418F), 1% Penicillin-Streptomycin (Gibco, #15140-122), 1% GlutaMAX™ Supplement (Gibco, #35050-038), 0.1% M-CSF (Invitrogen, #PHC9501)). Cells were grown for 7 days to induce full differentiation to iPSC macrophages. Both parental (TREM2 expressing) and isogenic TREM2 KO iPSC macrophages were plated to test for specificity of peptide binding. Following differentiation, cells were stimulated for 5 mins with either the control TREM2 activating antibody (R&D systems, #AF1828), a human IgG control (R&D systems, #AB-108-C), or a 10 point CRC of bicyclic peptide (serial 2 fold dilutions from a starting concentration of 100 μM). Following stimulation the media was removed, and cells were lysed in 50 μl lysis buffer (supplied with the kit) per well. Cells were incubated in LB3 for 30 mins with shaking at room temperature. Following lysis, 16 μl of sample was removed and added to a white 384 well plate (ProxiPlate-384 Plus (Perkin Elmer, #6008280)) and 4 μl of pre-mixed antibody solution was added to each well of the plate. The plate was incubated overnight at room temperature, and the following day, […] was measured at 665 nm and 620 nm using a Pherastar FSX. The same cell lysate was used to assess total and phosphorylated SYK, to enable the generation of a ratio of phosphorylated SYK in each sample."}, "[2]": {"biological_target": "TREM2 extracellular domain (ECD)", "experiment": "Bio-Layer Interferometry (BLI) direct binding assay, cyno", "description": "Traces were analysed using Octet Software (Version 11.0)."}, "[3]": {"details": "Human BLI (Kd; nM) (deglycosylated), Table 4A, deglycosylated human TREM2 ECD, steady-state KD, 25° C."}, "[4]": {"details": "human iPSC macrophages, 5 mins stimulation, phospho (Tyr 525/526) SYK, NB = no binding, read-out: pSYK"}}, "note": "Where two headings read alike, the source gives them in different places. *1 amine or outer side, *2 acyl side, *3 side chain or, on linkers, in order; H or OH if unused. Where a SMILES comes first, the peptide text is derived from it. Bridges are numbered along the chain shown (N, C = ends). [ ]: non-standard residue; d: D form. TATA = O=C(CC[*:1])N1CN(C(=O)CC[*:2])CN(C(=O)CC[*:3])C1; Phe(4-Me) = Cc1ccc(C[C@H](N)C(=O)O)cc1; 1Nal = N[C@@H](Cc1cccc2ccccc12)C(=O)O; 2Nal = N[C@@H](Cc1ccc2ccccc2c1)C(=O)O; hPhe = N[C@@H](CCc1ccccc1)C(=O)O; NMeA = CN[C@@H](C)C(=O)O"}
{"smiles": "CC(C)C[C@@H]1NC(=O)[C@H](Cc2ccc(O)cc2)NC(=O)[C@H](Cc2ccccc2)NC(=O)[C@@H]2CCCN2C(=O)[C@H](Cc2c[nH]c3ccccc23)NC(=O)[C@H](Cc2ccccc2)NC(=O)[C@@H]2CSCCC(=O)N3CN(CN(C3)C(=O)CCSC[C@@H](C(=O)N[C@@H](C)C(N)=O)NC1=O)C(=O)CCSC[C@H](NC(=O)[C@H](C)N)C(=O)N[C@@H]([C@@H](C)O)C(=O)N[C@@H](CC(N)=O)C(=O)N[C@@H](Cc1ccc(O)cc1)C(=O)N2", "note": "[BCY19782, A-(SEQ ID NO: 21)-A] (H-ACTNYCFWPFYLCA-NH2; linker 2-6-13 via TATA)", "values": [{"measurement": "Kd", "setting": "[1]; [3]", "result": 1400, "unit": "nM"}, {"measurement": "EC50", "setting": "TREM2 receptor; [4]", "result": 3.8, "unit": "µM"}]}
{"smiles": "CC(=O)N[C@H]1CSCCC(=O)N2CN3CN(C2)C(=O)CCSC[C@H](NC(=O)[C@H](Cc2ccc(O)cc2)NC(=O)[C@H](CCC(=O)O)NC(=O)[C@H](CO)NC1=O)C(=O)N[C@@H](Cc1ccccc1)C(=O)N[C@@H](Cc1ccc2ccccc2c1)C(=O)N1CCC[C@H]1C(=O)N[C@@H](Cc1ccccc1)C(=O)N[C@@H](Cc1ccc(O)cc1)C(=O)N[C@@H](C)C(=O)N[C@H](C(N)=O)CSCCC3=O", "note": "[BCY19296, Ac-(SEQ ID NO: 33)] (Ac-CSEYCF[2Nal]PFYAC-NH2; linker 1-5-12 via TATA; C-terminus assumed)", "values": [{"measurement": "Kd", "setting": "[1]; [3]", "result": 2700, "unit": "nM"}, {"measurement": "EC50", "setting": "TREM2 receptor; [4]", "result": "< 3.4", "unit": "µM"}]}
{"smiles": "C[C@H](N)C(=O)N[C@H]1CSCCC(=O)N2CN3CN(C2)C(=O)CCSC[C@H](NC(=O)[C@H](Cc2ccc(O)cc2)NC(=O)[C@H](CC(N)=O)NC(=O)[C@H]([C@@H](C)O)NC1=O)C(=O)N[C@@H](Cc1ccccc1)C(=O)N[C@@H](Cc1c[nH]c2ccccc12)C(=O)N1CCC[C@H]1C(=O)N[C@@H](Cc1ccccc1)C(=O)N[C@@H](CCC(N)=O)C(=O)N[C@@H](Cc1ccc(O)cc1)C(=O)N[C@H](C(=O)N[C@@H](C)C(N)=O)CSCCC3=O", "note": "[BCY19779, A-(SEQ ID NO: 18)-A] (H-ACTNYCFWPFQYCA-NH2; linker 2-6-13 via TATA)", "values": [{"measurement": "Kd", "setting": "[1]; [3]", "result": 920, "unit": "nM"}, {"measurement": "EC50", "setting": "TREM2 receptor; [4]", "result": 2.5, "unit": "µM"}]}
{"smiles": "C[C@H](N)C(=O)N[C@H]1CSCCC(=O)N2CN3CN(C2)C(=O)CCSC[C@H](NC(=O)[C@H](Cc2ccc(O)cc2)NC(=O)[C@H](CCC(=O)O)NC(=O)[C@H](CO)NC1=O)C(=O)N[C@@H](Cc1ccccc1)C(=O)N[C@@H](Cc1c[nH]c2ccccc12)C(=O)N1CCC[C@H]1C(=O)N[C@@H](Cc1ccccc1)C(=O)N[C@@H](CCC(N)=O)C(=O)N[C@@H](Cc1ccc(O)cc1)C(=O)N[C@H](C(=O)N[C@@H](C)C(N)=O)CSCCC3=O", "note": "[BCY19784, A-(SEQ ID NO: 23)-A] (H-ACSEYCFWPFQYCA-NH2; linker 2-6-13 via TATA)", "values": [{"measurement": "EC50", "setting": "TREM2 receptor; [4]", "result": 1.8, "unit": "µM"}]}
{"smiles": "CC(=O)N[C@H]1CSCCC(=O)N2CN3CN(C2)C(=O)CCSC[C@H](NC(=O)[C@H](Cc2ccc(O)cc2)NC(=O)[C@H](CCC(=O)O)NC(=O)[C@H](CO)NC1=O)C(=O)N[C@@H](Cc1ccccc1)C(=O)N[C@@H](Cc1c[nH]c2ccccc12)C(=O)N1CCC[C@H]1C(=O)N[C@@H](Cc1ccc(C)cc1)C(=O)N[C@@H](Cc1ccc(O)cc1)C(=O)N[C@@H](C)C(=O)N[C@H](C(N)=O)CSCCC3=O", "note": "[BCY19299, Ac-(SEQ ID NO: 36)] (Ac-CSEYCFWP[Phe(4-Me)]YAC-NH2; linker 1-5-12 via TATA; C-terminus assumed)", "values": [{"measurement": "Kd", "setting": "[1]; [3]", "result": 18000, "unit": "nM"}, {"measurement": "EC50", "setting": "TREM2 receptor; [4]", "result": "> 10", "unit": "µM"}]}
{"smiles": "C[C@H](N)C(=O)N[C@H]1CSCCC(=O)N2CN3CN(C2)C(=O)CCSC[C@H](NC(=O)[C@H](Cc2ccc(O)cc2)NC(=O)[C@H](CCC(=O)O)NC(=O)[C@H](CO)NC1=O)C(=O)N[C@@H](Cc1ccccc1)C(=O)N[C@@H](Cc1c[nH]c2ccccc12)C(=O)N1CCC[C@H]1C(=O)N[C@@H](Cc1ccccc1)C(=O)N[C@@H](Cc1ccc(O)cc1)C(=O)N[C@@H](Cc1c[nH]cn1)C(=O)N[C@H](C(=O)N[C@@H](C)C(N)=O)CSCCC3=O", "note": "[BCY16054, A-(SEQ ID NO: 1)-A] (H-ACSEYCFWPFYHCA-NH2; linker 2-6-13 via TATA; N-terminus and C-terminus assumed)", "values": [{"measurement": "Kd", "setting": "[1]; [3]", "result": 700, "unit": "nM"}, {"measurement": "Kd", "setting": "[1]; KD, binding to the human TREM2 extracellular domain in the BLI assay, FIGS. 1A to 1D", "result": "~700", "unit": "nM"}, {"measurement": "EC50", "setting": "TREM2 receptor", "result": 10.7, "unit": "µM"}, {"measurement": "Kd", "setting": "[2]; Table 4A", "result": 3300, "unit": "nM"}]}
{"smiles": "CC(=O)N[C@H]1CSCCC(=O)N2CN3CN(C2)C(=O)CCSC[C@H](NC(=O)[C@H](Cc2ccc(O)cc2)NC(=O)[C@H](CCC(=O)O)NC(=O)[C@H](CO)NC1=O)C(=O)N[C@@H](Cc1ccccc1)C(=O)N[C@@H](Cc1c[nH]c2ccccc12)C(=O)N1CCC[C@H]1C(=O)N[C@@H](CCc1ccccc1)C(=O)N[C@@H](Cc1ccc(O)cc1)C(=O)N[C@@H](C)C(=O)N[C@H](C(N)=O)CSCCC3=O", "note": "[BCY19301, Ac-(SEQ ID NO: 35)] (Ac-CSEYCFWP[hPhe]YAC-NH2; linker 1-5-12 via TATA)", "values": [{"measurement": "EC50", "setting": "TREM2 receptor; [4]", "result": "< 3.4", "unit": "µM"}]}
{"smiles": "CC(=O)N[C@H]1CSCCC(=O)N2CN3CN(C2)C(=O)CCSC[C@H](NC(=O)[C@H](Cc2ccc(O)cc2)NC(=O)[C@H](CCC(=O)O)NC(=O)[C@H](CO)NC1=O)C(=O)N[C@@H](Cc1ccccc1)C(=O)N[C@@H](Cc1c[nH]c2ccccc12)C(=O)N1CCC[C@H]1C(=O)N[C@@H](Cc1cccc2ccccc12)C(=O)N[C@@H](Cc1ccc(O)cc1)C(=O)N[C@@H](C)C(=O)N[C@H](C(N)=O)CSCCC3=O", "note": "[BCY20722, Ac-(SEQ ID NO: 46)] (Ac-CSEYCFWP[1Nal]YAC-NH2; linker 1-5-12 via TATA)", "values": [{"measurement": "Kd", "setting": "[2]; Table 4B", "result": 3600, "unit": "nM"}]}
{"smiles": "CC(=O)N[C@H]1CSCCC(=O)N2CN3CN(C2)C(=O)CCSC[C@H](NC(=O)[C@H](Cc2ccc(O)cc2)NC(=O)[C@H](CCC(=O)O)NC(=O)[C@H](CO)NC1=O)C(=O)N[C@@H](Cc1ccccc1)C(=O)N[C@@H](Cc1cccc2ccccc12)C(=O)N1CCC[C@H]1C(=O)N[C@@H](Cc1ccccc1)C(=O)N[C@@H](Cc1ccc(O)cc1)C(=O)N[C@@H](C)C(=O)N[C@H](C(N)=O)CSCCC3=O", "note": "[BCY19294, Ac-(SEQ ID NO: 32)] (Ac-CSEYCF[1Nal]PFYAC-NH2; linker 1-5-12 via TATA)", "values": [{"measurement": "Kd", "setting": "[1]; [3]", "result": 1500, "unit": "nM"}, {"measurement": "EC50", "setting": "TREM2 receptor; [4]", "result": "< 3.4", "unit": "µM"}]}
{"smiles": "CC(=O)N[C@H]1CSCCC(=O)N2CN3CN(C2)C(=O)CCSC[C@H](NC(=O)[C@H](Cc2ccc(O)cc2)NC(=O)[C@H](CCC(=O)O)NC(=O)[C@H](CO)NC1=O)C(=O)N[C@@H](Cc1ccc(C)cc1)C(=O)N[C@@H](Cc1c[nH]c2ccccc12)C(=O)N1CCC[C@H]1C(=O)N[C@@H](Cc1ccccc1)C(=O)N[C@@H](Cc1ccc(O)cc1)C(=O)N[C@@H](C)C(=O)N[C@H](C(N)=O)CSCCC3=O", "note": "[BCY19298, Ac-(SEQ ID NO: 30)] (Ac-CSEYC[Phe(4-Me)]WPFYAC-NH2; linker 1-5-12 via TATA; C-terminus assumed)", "values": [{"measurement": "EC50", "setting": "TREM2 receptor; [4]", "result": "< 3.4", "unit": "µM"}]}
{"smiles": "CC(=O)N[C@H]1CSCCC(=O)N2CN3CN(C2)C(=O)CCSC[C@H](NC(=O)[C@H](Cc2ccc(O)cc2)NC(=O)[C@H](CCC(=O)O)NC(=O)[C@H](CO)NC1=O)C(=O)N[C@@H](Cc1ccccc1)C(=O)N[C@@H](Cc1c[nH]c2ccccc12)C(=O)N(C)[C@@H](C)C(=O)N[C@@H](Cc1ccccc1)C(=O)N[C@@H](Cc1ccc(O)cc1)C(=O)N[C@@H](C)C(=O)N[C@H](C(N)=O)CSCCC3=O", "note": "[BCY19303, Ac-(SEQ ID NO: 34)] (Ac-CSEYCFW[NMeA]FYAC-NH2; linker 1-5-12 via TATA)", "values": [{"measurement": "EC50", "setting": "TREM2 receptor; [4]", "result": "< 3.4", "unit": "µM"}]}
